Data from patent US20240376084A1, “INHIBITORS OF ALPHA-HEMOLYSIN OF STAPHYLOCOCCUS AUREUS” (Helmholtz-Zentrum Fur Infektionsforschung GmbH, priority 2021, published 2024).

Tests used:
[1] = biological target: hemolysin alpha from Staphylococcus aureus (Staphylococcus aureus, UniProt P09616); assay: cell-based
[2] = biological target: S. aureus Alpha hemolysin (Staphylococcus aureus, UniProt P09616); assay: cell-based; settings: A549-LDH Assay activity
Sequence of S. aureus Alpha hemolysin (P09616 27-319 limits assumed): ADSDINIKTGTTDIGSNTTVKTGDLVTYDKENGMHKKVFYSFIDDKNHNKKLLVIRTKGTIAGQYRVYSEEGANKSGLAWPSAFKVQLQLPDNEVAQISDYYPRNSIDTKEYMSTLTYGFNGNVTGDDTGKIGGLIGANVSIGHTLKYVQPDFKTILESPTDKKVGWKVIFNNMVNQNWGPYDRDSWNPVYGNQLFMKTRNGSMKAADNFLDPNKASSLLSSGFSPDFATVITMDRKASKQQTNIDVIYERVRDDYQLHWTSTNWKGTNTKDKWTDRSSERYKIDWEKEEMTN

Sequence of hemolysin alpha from Staphylococcus aureus (P09616 27-319 limits assumed): as above

| SMILES | EC50 [1] [nM] | EC50 [2] [nM] | IC50 [1] [nM] |
| --- | --- | --- | --- |
| CCO/C=C/c1ccc(NS(=O)(=O)c2cc3[nH]c(=O)c(=O)[nH]c3cc2C)cc1Cl [Compound 293, N-[3-chloro-4-[(E)-2-ethoxyvinyl]phenyl]-7-methyl-2,3-dioxo-1,4-dihydroquinoxaline-6-sulfonamide] | 100 to 1000 | 1000 to 6000 |  |
| Cc1cc2[nH]c(=O)c(=O)[nH]c2cc1S(=O)(=O)Nc1cc(C)c(-c2ccccc2F)c(C)c1 [Compound 51, N-(2′-fluoro-2,6-dimethyl-[1,1′-biphenyl]-4-yl)-7-methyl-2,3-dioxo-1,2,3,4-tetrahydroquinoxaline-6-sulfonamide] |  | 30 to 100 | 30 to 100 |
| Cc1cc(NS(=O)(=O)c2cc3[nH]c(=O)c(=O)[nH]c3cc2F)ccc1-c1ccccc1 [Compound 33, 7-fluoro-N-(2-methyl-[1,1′-biphenyl]-4-yl)-2,3-dioxo-1,2,3,4-tetrahydroquinoxaline-6-sulfonamide] |  | 30 to 100 | < 30 |
| COc1ccc(-c2ccc(NS(=O)(=O)c3cc4[nH]c(=O)c(=O)[nH]c4cc3C)cc2Cl)c(F)c1 [Compound 261, N-[3-chloro-4-(2-fluoro-4-methoxy-phenyl)phenyl]-7-methyl-2,3-dioxo-1,4-dihydroquinoxaline-6-sulfonamide] | < 30 | 30 to 100 |  |
| Cc1cc2[nH]c(=O)c(=O)[nH]c2cc1S(=O)(=O)Nc1ccc(-c2ccc3c(c2)N(C)CCO3)c(Cl)c1 [Compound 354, N-[3-chloro-4-(4-methyl-2,3-dihydro-1,4-benzoxazin-6-yl)phenyl]-7-methyl-2,3-dioxo-1,4-dihydroquinoxaline-6-sulfonamide] | 30 to 100 | 100 to 1000 |  |
| O=c1[nH]c2cc(Cl)c(S(=O)(=O)Nc3ccc(Br)c(Cl)c3)cc2[nH]c1=O [Compound 144, N-(4-bromo-3-chlorophenyl)-7-chloro-2,3-dioxo-1,2,3,4-tetrahydroquinoxaline-6-sulfonamide] |  | 1000 to 6000 | 100 to 1000 |
| COc1ccc(-c2ccc(NS(=O)(=O)c3cc4[nH]c(=O)c(=O)[nH]c4cc3C)cc2Cl)cc1 [Compound 246, N-[3-chloro-4-(4-methoxyphenyl)phenyl]-7-methyl-2,3-dioxo-1,4-dihydroquinoxaline-6-sulfonamide] | < 30 | 30 to 100 |  |
| [2H]C([2H])([2H])c1cc2[nH]c(=O)c(=O)[nH]c2cc1S(=O)(=O)Nc1ccc(-c2ccc(F)cc2)c(Cl)c1 [Compound 387, N-[3-chloro-4-(4-fluorophenyl)phenyl]-2,3-dioxo-7-(trideuteriomethyl)-1,4-dihydroquinoxaline-6-sulfonamide] | < 30 | 30 to 100 |  |
| Cc1cc2[nH]c(=O)c(=O)[nH]c2cc1S(=O)(=O)Nc1ccc(N2CCCC2)cc1 [Compound 137, 7-methyl-2,3-dioxo-N-(4-(pyrrolidin-1-yl)phenyl)-1,2,3,4-tetrahydroquinoxaline-6-sulfonamide] |  | 30 to 100 | 100 to 1000 |
| Cc1cc2[nH]c(=O)c(=O)[nH]c2cc1S(=O)(=O)Nc1ccc(-c2cccc(O)c2)c(C(F)(F)F)c1 [Compound 366, N-[4-(3-hydroxyphenyl)-3-(trifluoromethyl)phenyl]-7-methyl-2,3-dioxo-1,4-dihydroquinoxaline-6-sulfonamide] | < 30 | 30 to 100 |  |
| Cc1cc2[nH]c(=O)c(=O)[nH]c2cc1S(=O)(=O)Nc1ccc(-c2ccccc2)c(Cl)c1 [Compound 1, N-(2-chloro-[1,1′-biphenyl]-4-yl)-7-methyl-2,3-dioxo-1,2,3,4-tetrahydroquinoxaline-6-sulfonamide] |  | 30 to 100 | < 30 |
| Cc1cc2[nH]c(=O)c(=O)[nH]c2cc1S(=O)(=O)Nc1ccc(-c2ccc3nn[nH]c3c2)c(Cl)c1 [Compound 256, N-[4-(1H-benzotriazol-5-yl)-3-chloro-phenyl]-7-methyl-2,3-dioxo-1,4-dihydroquinoxaline-6-sulfonamide] | < 30 | 30 to 100 |  |
| Cc1cc2[nH]c(=O)c(=O)[nH]c2cc1S(=O)(=O)Nc1ccc(-c2cc(F)cc(C(N)=O)c2)c(Cl)c1 [Compound 390, 3-[2-chloro-4-[(7-methyl-2,3-dioxo-1,4-dihydroquinoxalin-6-yl)sulfonylamino]phenyl]-5-fluoro-benzamide] | < 30 | < 30 |  |
| Cc1cc2[nH]c(=O)c(=O)[nH]c2cc1S(=O)(=O)Nc1ccc(-c2ccc3c(c2)OC(F)(F)O3)c(Cl)c1 [Compound 287, N-[3-chloro-4-(2,2-difluoro-1,3-benzodioxol-5-yl)phenyl]-7-methyl-2,3-dioxo-1,4-dihydroquinoxaline-6-sulfonamide] | 30 to 100 | 30 to 100 |  |
| Cc1cc(NS(=O)(=O)c2cc3[nH]c(=O)c(=O)[nH]c3cc2Cl)cc(C)c1-c1ccccc1 [Compound 106, 7-chloro-N-(2,6-dimethyl-[1,1′-biphenyl]-4-yl)-2,3-dioxo-1,2,3,4-tetrahydroquinoxaline-6-sulfonamide] |  | 30 to 100 | 100 to 1000 |
| O=c1[nH]c2cc(Cl)c(S(=O)(=O)Nc3ccc(-c4ccncc4)c(Cl)c3)cc2[nH]c1=O [Compound 94, 7-chloro-N-(3-chloro-4-(pyridin-4-yl)phenyl)-2,3-dioxo-1,2,3,4-tetrahydroquinoxaline-6-sulfonamide] |  | 100 to 1000 | 100 to 1000 |
| Cc1cc2[nH]c(=O)c(=O)[nH]c2cc1S(=O)(=O)Nc1ccc(-c2cccc(CN)c2)c(Cl)c1 [Compound 342, N-[4-[3-(aminomethyl)phenyl]-3-chloro-phenyl]-7-methyl-2,3-dioxo-1,4-dihydroquinoxaline-6-sulfonamide] | 1000 to 3500 | 100 to 1000 |  |
| CNc1cc2[nH]c(=O)c(=O)[nH]c2cc1S(=O)(=O)Nc1ccc(OC(F)(F)F)cc1 [Compound 381, 7-(methylamino)-2,3-dioxo-N-[4-(trifluoromethoxy)phenyl]-1,4-dihydroquinoxaline-6-sulfonamide] | 100 to 1000 | 100 to 1000 |  |
| Cc1cc2[nH]c(=O)c(=O)[nH]c2cc1S(=O)(=O)Nc1ccc(-c2ccc3cc[nH]c3c2)c(Br)c1 [Compound 374, N-[3-bromo-4-(1H-indol-6-yl)phenyl]-7-methyl-2,3-dioxo-1,4-dihydroquinoxaline-6-sulfonamide] | < 30 | < 30 |  |
| O=c1[nH]c2cc(Cl)c(S(=O)(=O)Nc3ccc4ccccc4c3)cc2[nH]c1=O [Compound 172, 7-chloro-N-(naphthalen-2-yl)-2,3-dioxo-1,2,3,4-tetrahydroquinoxaline-6-sulfonamide] |  | 100 to 1000 | 100 to 1000 |
| O=c1[nH]c2cc(Br)c(S(=O)(=O)Nc3ccc(OC(F)(F)F)cc3)cc2[nH]c1=O [Compound 15, 7-bromo-2,3-dioxo-N-(4-(trifluoromethoxy)phenyl)-1,2,3,4-tetrahydroquinoxaline-6-sulfonamide] |  | 30 to 100 | < 30 |
| Cc1cccc(-c2c(C)cc(NS(=O)(=O)c3cc4[nH]c(=O)c(=O)[nH]c4cc3C)cc2C)c1 [Compound 175, 7-methyl-2,3-dioxo-N-(2,3′,6-trimethyl-[1,1′-biphenyl]-4-yl)-1,2,3,4-tetrahydroquinoxaline-6-sulfonamide] |  | 100 to 1000 | 100 to 1000 |
| COc1ccc(-c2ccc(NS(=O)(=O)c3cc4[nH]c(=O)c(=O)[nH]c4cc3C)cc2Cl)cc1C#N [Compound 289, N-[3-chloro-4-(3-cyano-4-methoxy-phenyl)phenyl]-7-methyl-2,3-dioxo-1,4-dihydroquinoxaline-6-sulfonamide] | 30 to 100 | 100 to 1000 |  |
| N#Cc1cc2[nH]c(=O)c(=O)[nH]c2cc1S(=O)(=O)Nc1ccc(OC(F)(F)F)cc1 [Compound 216, 7-cyano-2,3-dioxo-N-(4-(trifluoromethoxy)phenyl)-1,2,3,4-tetrahydroquinoxaline-6-sulfonamide] | 100 to 1000 | 100 to 1000 |  |
| Cc1cc2[nH]c(=O)c(=O)[nH]c2cc1S(=O)(=O)Nc1ccc(-c2ccc3cn[nH]c3c2)c(Cl)c1 [Compound 370, N-[3-chloro-4-(1H-indazol-6-yl)phenyl]-7-methyl-2,3-dioxo-1,4-dihydroquinoxaline-6-sulfonamide] | < 30 | < 30 |  |
| Cc1cc2[nH]c(=O)c(=O)[nH]c2cc1S(=O)(=O)Nc1ccc(Br)cc1 [Compound 97, N-(4-bromophenyl)-7-methyl-2,3-dioxo-1,2,3,4-tetrahydroquinoxaline-6-sulfonamide] |  | 30 to 100 | 100 to 1000 |
| O=c1[nH]c2cc(Cl)c(S(=O)(=O)Nc3ccc(-c4ccccc4)c(Cl)c3)cc2[nH]c1=O [Compound 14, 7-chloro-N-(2-chloro-[1,1′-biphenyl]-4-yl)-2,3-dioxo-1,2,3,4-tetrahydroquinoxaline-6-sulfonamide] |  | 100 to 1000 | < 30 |
| Cc1cc2[nH]c(=O)c(=O)[nH]c2cc1S(=O)(=O)Nc1ccc(OC(F)(F)F)c(Cl)c1 [Compound 324, N-[3-chloro-4-(trifluoromethoxy)phenyl]-7-methyl-2,3-dioxo-1,4-dihydroquinoxaline-6-sulfonamide] | 30 to 100 | 30 to 100 |  |
| Cc1cc2[nH]c(=O)c(=O)[nH]c2cc1S(=O)(=O)Nc1ccc(OC(F)F)cc1 [Compound 394, N-[4-(difluoromethoxy)phenyl]-7-methyl-2,3-dioxo-1,4-dihydroquinoxaline-6-sulfonamide] | 100 to 1000 | 30 to 100 |  |
